{
  "source": "patent US20230349922A1",
  "about": "“H2 Blockers Targeting Liver Macrophages for the Prevention and Treatment of Liver Disease and Cancer” (Université de Strasbourg, priority 2020, published 2023)",
  "key": {"intracellular cAMP": {"test_system": "intracellular cAMP", "assay": "Intracellular cAMP level by ELISA in HCV-infected Huh7.5.1dif cells", "type": "cell-based, human", "settings": "increase following induction of the poor-prognosis PLS (HCV Jc1 5 days), nizatidine 3 more days", "experimental": "ELISA Assay. To assess the HCV infection and nizatidine treatment on intracellular cAMP level, Huh7.5.1^dif cells were infected with HCV Jc1 for 5 days and were incubated for 3 more days with nizatidine or DMSO as a control. The cAMP level was measured by ELISA assay using the cAMP Parameter Assay Kit (R&D System) according to manufacturer's instructions."}, "[1]": {"test_system": "M1-polarized THP-1 macrophages", "assay": "Cytokine expression by qRT-PCR in M1-polarized THP-1 macrophages", "type": "cell-based, human", "experimental": "(§1) Real-Time qRT-PCR. cDNAs were synthetized by reverse transcription using SuperScript III First-Strand Synthesis SuperMix (Life Technologies). Expression of mouse IL6, TNFα and IL1β was analyzed by quantitative real-time PCR using TaqMan Gene Expression Assays (Thermo Fisher Scientific) on the CFX96 Touch Real-Time PCR Detection System PCR system (Bio-Rad). Expression of human CCL2 and TGF was analyzed using iTaq™ Universal SYBR® Green Supermix (Bio-Rad). The 2^−ΔCT method was used for relative quantification (Schmittgen and Livak, Nature Protoc., 2008, 3: 1101-1108) of mRNA with normalization to 18S. The 2^−ΔCT method was used for relative quantification (Schmittgen and Livak, Nature Protoc., 2008, 3: 1101-1108) of mRNA with normalization to GAPDH mRNA.\nM1 Macrophage Polarization and HRH2 Blocker Treatment. THP1 cells were cultured in RPMI 1640 Medium with GlutaMAX™-I supplement and HEPES and supplemented with 10% FBS and gentamycin (0.05 mg/mL). M1 macrophage polarization from THP-1 was performed as previously described (Yeung et al., J. Hepatol., 2015, 62: 607-616). To generate MO THP-1 macrophages, THP1 cells were treated with PMA 320 nM for 24 hours. To generate M1-polarized THP-1 macrophages, THP-1 cells were treated with […] then with 100 ng/ml LPS and 20 ng/ml IFNγ for 18 hours. […]"}, "[2]": {"test_system": "patient-derived Kupffer cells", "assay": "Cytokine expression by qRT-PCR in M1 differentiated patient-derived Kupffer cells", "type": "cell-based, human", "settings": "Kupffer cells isolated from patient tissues, LPS + IFNγ, nizatidine 30 μM 48 hours", "experimental": "Real-Time qRT-PCR. cDNAs were synthetized by reverse transcription using SuperScript III First-Strand Synthesis SuperMix (Life Technologies). Expression of […] IL6, TNFα and IL1β was analyzed by quantitative real-time PCR using TaqMan Gene Expression Assays (Thermo Fisher Scientific) on the CFX96 Touch Real-Time PCR Detection System PCR system (Bio-Rad). Expression of human CCL2 and TGF was analyzed using iTaq™ Universal SYBR® Green Supermix (Bio-Rad). The 2^−ΔCT method was used for relative quantification (Schmittgen and Livak, Nature Protoc., 2008, 3: 1101-1108) of mRNA with normalization to 18S. The 2^−ΔCT method was used for relative quantification (Schmittgen and Livak, Nature Protoc., 2008, 3: 1101-1108) of mRNA with normalization to GAPDH mRNA. Isolation and Treatment of Patient-Derived Kupffer Cells. Kupffer cells were isolated as previously described (Kegel et al., J. Vis. Exp., 2016, 109: e53069) from liver tissue of patients without history of chronic liver disease. Briefly, the non-parenchymal cell populations (NPCs) were purified by serial centrifugation followed by separation of Kupffer cells, exploiting fast attachment of primary macrophages to plastic within 20 minutes. Cells were cultured in RPMI 1640 Medium with GlutaMAX™-I supplement and HEPES and supplemented with 10% FBS and gentamycin (0.05 mg/mL). […]"}, "Huh7.5.1dif cells": {"test_system": "Huh7.5.1dif cells", "assay": "IL6 and TNFα expression by qRT-PCR in HCV-infected Huh7.5.1dif cells", "type": "cell-based, human", "experimental": "FIG. 8. The Huh7.5.1^dif Cell-Based System Recapitulates Transcriptional Dysregulations in Human Macrophages. (A-B) HRH2 knockdown leads to CREB5 downregulation in Huh7.5.1^dif cells similar to macrophages. Macrophages (A) and Huh7.5.1^dif cells (B) were transfected with siRNA CTRL or targeting HRH2 expression and activated using LPS+IFNγ or HCV-infection respectively. HRH2, CREB5 expression and the HCV viral load were analyzed by qRT-PCR. (Macrophage=three independent experiments n=8; Huh7.5.1^dif cells=two independent experiments n=6). (C) Nizatidine treatment decreases IL6 and TNF expression in Huh7.5.1^dif cells similar to macrophage. Huh7.5.1^dif cells were HCV infected and treated with nizatidine. IL6 and TNFα expression were analyzed by qRT-PCR. […]\nas §1, with “The 2^−ΔCT method was used for relative quantification (Schmittgen and Livak, Nature Protoc., 2008, 3: 1101-1108) of mRNA with normalization to GAPDH mRNA.” left out"}, "[3]": {"test_system": "primary human hepatocytes (PHH)", "assay": "Cell viability of primary human hepatocytes in 3D culture", "type": "cell-based", "settings": "4 days after nizatidine treatment, compared to DMSO", "experimental": "FIG. 9. Proof-of-concept for Therapeutic Impact of Nizatidine in Patient-Derived HCC Spheroids. (A) Absent effect on cell viability in PHH, assessed 4 days after nizatidine treatment in 3D culture. […] (B) Nizatidine decreases HCC cell viability in a 3D patient-derived tumorspheroid model. HCC spheroids were generated from patient HCC tissues with different etiologies. Cell viability was assessed 4 days after treatment by measuring ATP levels. […] The pictures show representative image of patient-derived tumorspheroids (magnification X40). NASH=non-alcoholic steatohepatitis; ALD=alcoholic liver disease. Source data are provided as a Source Data file."}, "[4]": {"test_system": "patient-derived HCC tumor spheroids", "assay": "Cell viability (ATP, CellTiter-Glo) of patient-derived HCC tumorspheroids", "type": "cell-based, human", "settings": "nizatidine 50 μM, 4 days, ATP levels, compared to DMSO; 6 patients", "experimental": "Patient-Derived HCC Tumor Spheroids. Tumorspheroids were generated from liver tissues from HCC patients undergoing surgical resection and dissociated using the Human Tumor Dissociation Kit. Total cell populations including epithelical (i.e., cancer cells/hepatocytes) and NPCs were used to generate multicellular tumorspheroids in Corning® 96-well Black/Clear Bottom Low Flange Ultra-Low Attachment Microplates (Corning). After 48 hours, HCC-derived spheroids were treated with nizatidine 50 μM, sorafenib 10 μM or DMSO vehicle control for 4 days. Fresh medium containing DMSO or drugs was added every day. Cell viability was assessed using CellTiter-Glo® (Luminescent Cell Viability Assay), according to manufacturer's instruction."}, "[5]": {"settings": "activated THP1-derived macrophages"}},
  "data": [
    {"compound": "CNC(=C[N+](=O)[O-])NCCSCc1csc(CN(C)C)n1", "note": "[Nizatidine, N-[2-[[[2-[(dimethylamino)methyl]-4-thizaolyl]methyl]thio]ethyl]-N′-methyl-2-nitro-1,1-ethene-diamine]", "values": [
      {"measurement": "intracellular cAMP level", "setting": "intracellular cAMP", "value": "reverted"},
      {"measurement": "pro-inflammatory cytokine expression", "setting": "[1]; THP1-derived M1-polarized macrophages, nizatidine 48 hours", "value": "direct effect"},
      {"measurement": "IL6 expression", "setting": "[1]; [5]", "value": "decreased"},
      {"measurement": "TNFα expression", "setting": "[1]; [5]", "value": "decreased"},
      {"measurement": "pro-inflammatory cytokine expression", "setting": "[2]", "value": "direct effect"},
      {"measurement": "IL6 expression", "setting": "Huh7.5.1dif cells", "value": "decreased"},
      {"measurement": "TNFα expression", "setting": "Huh7.5.1dif cells", "value": "decreased"},
      {"measurement": "PHH viability", "setting": "[3]", "value": "no effect"},
      {"measurement": "tumor spheroid viability", "setting": "[4]", "value": "significant decrease of tumor spheroid viability in 4 out of 6 patients"}
    ]}
  ]
}
